From patent US12220410B2, “Antitumor composition” (priority 2019, dated 2025)
Where two headings read alike, the source gives them in different places.

Assays:
[1] = system: human diffuse large B-cell lymphoma cell line OCI-Ly7; parameters: species or system SCID mice; conditions: mouse, in vivo
[2] = system: human acute myelogenous leukemia (AML) cell line KG-1; format: in vivo
[3] = system: human diffuse large B-cell lymphoma (DLBCL) cell line OCI-Ly7; experiment: In vitro cell growth inhibition test, OCI-Ly7 (cell viability, combination index); format: cell-based; conditions: bendamustine 0 nM
[4] = system: human breast cancer cell line MDA-MB-453; experiment: In vivo antitumor effect test, MDA-MB-453 tumor, compound A and lapatinib (Example 37); parameters: species or system NOD-SCID mice; conditions: for Tumor growth delay / Tumor growth delay rate: relative tumor volume 200%
Description: The tumor volume was calculated from tumor diameters by the following formula: (Long diameter×[Short diameter]^2×0.5). Using the calculated tumor volume value, the relative tumor volume (ratio of the tumor volume on the day of measurement to the baseline tumor volume on Day 1) was calculated. […] Further, the tumor growth delay rate (% TGD) was calculated according to the following formula: % TGD={(T−C)/C}×100, Where: • T: […] relative tumor volume of the control group to reach 1600% 6) Statistical Analysis
Compound A was suspended in a 1% hypromellose solution to prepare 20 mg/mL test substance suspensions (a suspension for preparing a single administration solution and a suspension for preparing a 100 mg/kg combined administration solution). The 20 mg/mL test substance suspensions were diluted with a 1% hypromellose solution to prepare 10 mg/mL (100 mg/kg administration solution), 6 mg/mL (suspension for preparing a 30 mg/kg combined administration solution), and 3 mg/mL (30 mg/kg administration solution) test substance suspensions. Lapatinib was suspended in a 1% hypromellose solution to prepare a 20 mg/mL suspension for preparing a 100 mg/kg lapatinib combined administration solution. The 20 mg/mL suspension was diluted with a 1% hypromellose solution to prepare a 10 mg/mL suspension for 100 mg/kg single administration. The administration solution of the combination group was prepared by mixing the 6 mg/mL compound A suspension and the 20 mg/mL lapatinib suspension at 1:1, or mixing the 20 mg/mL compound A suspension and the 20 mg/mL lapatinib suspension at 1:1.
MDA-MB-453 was obtained from ATCC. […] The collected cells were suspended in serum-free RPMI 1640 medium at 1.0×10^8 cells/mL.
5-week-old female NOD-SCID mice (NOD.CB17-Prkdcscid/J, produced by Charles River Japan Co., Ltd.) were used. The female NOD-SCID mice were bred in the same manner as in Example 36. The cell suspension was inoculated at 2×10^7 cells/body into the subcutaneous space of the right axillary region of the 6-week-old NOD-SCID mice, and the mice were grouped in the same manner as in Example 36 using the tumor volume as an index.
The administration was started on the next day of the grouping (Day 2), and compound A and lapatinib were orally administered once a day for 28 consecutive days. Each group (N=8) was treated as follows. • (1) Control (solvent control) group: 1% hypromellose solution • (2) Compound A (30 mg/kg) treated group: 30 mg/kg of compound A (oral administration once a day for 28 consecutive days) • (3) Compound A (100 mg/kg) treated group: 100 mg/kg of compound A (oral administration once a day for 28 consecutive days) • (4) Lapatinib (100 mg/kg) treated group: 100 mg/kg of lapatinib (oral administration once a day for 28 consecutive days) • (5) Combination group 1: 30 mg/kg of compound A (oral administration once a day for 28 consecutive days)+100 mg/kg of lapatinib (oral administration once a day for 28 consecutive days) • (6) Combination group 2: 100 mg/kg of compound A (oral administration once a day for 28 consecutive days)+100 mg/kg of lapatinib (oral administration once a day for 28 consecutive days)

[5] = system: human diffuse large B-cell lymphoma cell line OCI-Ly7; format: in vivo
[6] = system: human acute myelogenous leukemia (AML) cell line KG-1; format: in vivo; remark: listed apart in the source
[7] = system: human diffuse large B-cell lymphoma cell line OCI-Ly7; format: in vivo; remark: listed apart in the source
[8] = system: human acute myelogenous leukemia (AML) cell line KG-1; format: in vivo; remark: listed apart in the source
[9] = system: human follicular lymphoma cell line DOHH-2; experiment: In vitro cell growth inhibition test (CellTiter-Fluor), DOHH-2; format: cell-based; conditions: DOHH-2
[10] = system: human diffuse large B-cell lymphoma cell line OCI-Ly7; format: in vivo; conditions: for Tumor growth delay / Tumor growth delay rate: relative tumor volume 1600%
[11] = compound A 30 mg/kg orally once a day for 28 days
[12] = compound A 100 mg/kg orally once a day for 28 days
[13] = compound A 30 mg/kg orally once a day for 21 days, relative tumor volume 600%
[14] = compound A 30 mg/kg orally once a day for 14 days
[15] = compound A 10 mg/kg orally once a day for 14 days
[16] = compound A 100 mg/kg orally once a day for 14 days

## CNc1ccc(Oc2ccc(NC(=O)c3ccc(C(F)(F)F)cc3)cn2)c(C)c1.Cl [Compound A, N-{6-[2-methyl-4-(methylamino)phenoxy]pyridin-3-yl}-4-(trifluoromethyl)benzamide hydrochloride]
[1]
  effectiveness (tumor growth delay): effective
[1]; po, 30 mg/kg
  Median Time (time for relative tumor volume to reach 800%): 18.2 days
  Tumor growth delay: 8.3 days
  Tumor growth delay rate: 83.8%
[2]; compound A 30 mg/kg, decitabine 1 mg/kg
  antitumor effect on KG-1 tumor (monotherapy): antitumor effect
[2]; compound A monotherapy 30 mg/kg orally, daily, 21 days, Day 23
  T/C (ratio of relative tumor volume of treated group to control group): 45.2%
[3]; compound A 0.25 nM, OCI-Ly7, 8000 cells/well
  Cell viability (ratio relative to the drug-free control): 0.79
[3]; compound A 0.5 nM, OCI-Ly7
  Cell viability (ratio relative to the drug-free control): 0.76
[3]; compound A 1 nM, OCI-Ly7
  Cell viability (ratio relative to the drug-free control): 0.61
[3]; compound A 2 nM, OCI-Ly7
  Cell viability (ratio relative to the drug-free control): 0.50
[4]; 30 or 100 mg/kg of compound A, 100 mg/kg of lapatinib
  effectiveness of monotherapy (tumor growth delay): effective
[4]; [11]
  Median Time (time for relative tumor volume to reach 200%): 39.3 days
  Tumor growth delay: 16.5 days
  Tumor growth delay rate: 72.4%
[4]; [12]
  Median Time (time for relative tumor volume to reach 200%): >99.0 days
  Tumor growth delay: >76.2 days
[4]; compound A 100 mg/kg orally once a day for 28 days, hydrochloride, 100 mg/kg
  Tumor growth delay rate: >334.2%
[4]; compound A 100 mg/kg orally once a day for 28 days, listed as compound A, hydrochloride, 100 mg/kg
  Tumor growth delay rate: > 334.2%
[5]; 30 mg/kg of compound A, 10 mg/kg of rituximab
  effectiveness of monotherapy (tumor growth delay): effective
[5]; compound A 30 mg/kg orally once a day for 21 days
  Median Time (time for relative tumor volume to reach 600%): 28.4 days
[5]; [13]
  Tumor growth delay: 12.1 days
  Tumor growth delay rate: 73.9%
[6]; compound A 50 mg/kg, venetoclax 50 mg/kg + decitabine 1 mg/kg
  antitumor effect on KG-1 tumor: antitumor effect
[6]; compound A single administration 50 mg/kg orally, daily, 14 days, Day 16
  T/C (ratio of relative tumor volume of treated group to control group): 29.2%
[7]; 30 mg/kg of compound A, 15 mg/kg of bendamustine
  effectiveness of monotherapy (tumor growth delay): effective
[7]; [14]
  Median Time (time for relative tumor volume to reach 1600%): 23.9 days
[7]; compound A 30 mg/kg orally once a day for 14 days, relative tumor volume 1600%
  Tumor growth delay: 8.4 days
[8]; compound A 30 mg/kg, cytarabine 50 mg/kg
  antitumor effect on KG-1 tumor (monotherapy): antitumor effect
[8]; compound A monotherapy 30 mg/kg orally, daily, 14 days, Day 16
  T/C (ratio of relative tumor volume of treated group to control group): 52.0%
[9]; bendamustine fixed at 0 nM, compound A at its IC50
  FIC (fractional inhibitory concentration): 1
[9]; bendamustine fixed at 1250 nM, compound A at its IC50
  FIC (fractional inhibitory concentration): 0.595
[9]; bendamustine fixed at 2500 nM, compound A at its IC50
  FIC (fractional inhibitory concentration): 0.258
[9]; bendamustine fixed at 5000 nM, compound A at its IC50
  FIC (fractional inhibitory concentration): 0.123
[9]; compound A fixed at 0 nM, bendamustine at its IC50
  FIC (fractional inhibitory concentration): 0
[9]; compound A fixed at 39.1 nM, bendamustine at its IC50
  FIC (fractional inhibitory concentration): 0.103
[9]; compound A fixed at 78.1 nM, bendamustine at its IC50
  FIC (fractional inhibitory concentration): 0.205
[9]; compound A fixed at 156.3 nM, bendamustine at its IC50
  FIC (fractional inhibitory concentration): 0.410
[9]; compound A fixed at 312.5 nM, bendamustine at its IC50
  FIC (fractional inhibitory concentration): 0.820
[10]; 30 or 100 mg/kg of compound A, 50 mg/kg of cyclophosphamide
  effectiveness of monotherapy (tumor growth delay): effective
[10]; [15]
  Median Time (time for relative tumor volume to reach 1600%): 13.2 days
  Tumor growth delay: 0.5 days
  Tumor growth delay rate: 3.5%
[10]; [14]
  Median Time (time for relative tumor volume to reach 1600%): 23.0 days
  Tumor growth delay: 10.3 days
[10]; [16]
  Median Time (time for relative tumor volume to reach 1600%): 31.5 days
  Tumor growth delay: 18.8 days
  Tumor growth delay rate: 147.6%
